# Data as given in US6489295B1, “Antagonists of intestinotrophic GLP-2 peptides” (1149336 Ontario Inc., priority 1996, dated 2002).
# Non-standard residues stand in square brackets, D forms with d. Residues, ends and D or L forms follow the SMILES beside them. No end group written: not given here. pY = N[C@@H](Cc1ccc(OP(=O)(O)O)cc1)C(=O)O
# Test system: intestinotrophic activity of rat GLP-2
# Experiment: GLP-2 antagonist assessment by co-administration into mice with GLP-2 (small bowel weight)
# Assay type: in vivo
# Conditions: CD1 female mice, antagonist to GLP-2 ratio 4:1 by weight (12.5 μg/2.5 μg rat GLP-2) s.c. twice a day, 10-14 days
# Experimental: The candidate peptide antagonist and rat GLP-2 were dissolved in PBS to give a final ratio of 25 μg antagonist/2.5 μg GLP-2 per 0.5 ml phosphate buffered saline solution (for a 10:1 ratio), or […] antagonist/2.5 μg GLP-2 per 0.5 ml phosphate buffered saline solution (for a 4:1 ratio), as indicated. The antagonist/GLP-2 mixture was administered to 6-8 week old CD1 female mice subcutaneously, with the amount of peptide injected being 25 μg antagonist/2.5 μg GLP-2 in 0.5 ml twice a day, or 12.5 μg antagonist/2.5 μg GLP-2 in 0.5 ml twice a day. After 10-14 days, peptide-injected and control (saline-injected) mice were sacrificed, and small bowel weights were determined.
row,Compound,% Antagonism [%]
1,ratGLP-2(3-33),33

# Same assay, conditions: CD1 female mice, antagonist to GLP-2 ratio 10:1 by weight (25 μg/2.5 μg rat GLP-2) s.c. twice a day, 10-14 days
row,Compound,% Antagonism [%]
1,ratGLP-2(2-33),42
2,ratGLP-2(4-33),32
3,ratGLP-2(5-33),16

# Target: T1, human placental DPP-IV (Homo sapiens, UniProt P27487)
# T1 sequence (P27487 whole entry): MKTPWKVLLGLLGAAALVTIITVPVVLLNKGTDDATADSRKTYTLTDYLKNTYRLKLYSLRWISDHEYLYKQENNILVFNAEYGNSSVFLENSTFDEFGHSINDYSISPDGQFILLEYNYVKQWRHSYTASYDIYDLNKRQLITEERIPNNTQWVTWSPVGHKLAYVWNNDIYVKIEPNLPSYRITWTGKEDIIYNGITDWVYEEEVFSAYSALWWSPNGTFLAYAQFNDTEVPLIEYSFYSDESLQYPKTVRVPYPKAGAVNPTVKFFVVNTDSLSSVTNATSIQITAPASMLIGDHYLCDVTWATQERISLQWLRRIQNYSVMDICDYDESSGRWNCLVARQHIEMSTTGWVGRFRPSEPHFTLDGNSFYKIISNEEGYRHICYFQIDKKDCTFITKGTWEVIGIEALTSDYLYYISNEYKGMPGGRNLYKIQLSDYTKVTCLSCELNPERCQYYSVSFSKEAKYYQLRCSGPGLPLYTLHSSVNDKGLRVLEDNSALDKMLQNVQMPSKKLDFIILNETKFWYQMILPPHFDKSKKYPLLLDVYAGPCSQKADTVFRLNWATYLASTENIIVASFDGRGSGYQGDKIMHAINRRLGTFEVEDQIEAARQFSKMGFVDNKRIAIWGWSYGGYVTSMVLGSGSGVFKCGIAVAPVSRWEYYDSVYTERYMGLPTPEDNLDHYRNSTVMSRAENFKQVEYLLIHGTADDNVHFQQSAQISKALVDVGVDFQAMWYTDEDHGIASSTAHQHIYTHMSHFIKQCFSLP
# Experiment: Assay for resistance to dipeptidyl peptidase IV
# Conditions: 24 hours at 37° C., RP-HPLC
# Experimental: To perform the assay, 2.5 microliters (μl) of a solution of human placental DPP-IV (Calbiochem, La Jolla, Calif., cat. # 317624) containing 0.125 milliunits (mU) of enzyme in 50% glycerol, mM Tris, pH 7.8, EDTA and 0.02% NaN3 was added to 50 μl of a solution of the test peptide prepared at a concentration of 0.2 mg/ml in PBS at pH 7.4. The mixture was incubated at 37° C. in a circulating water bath for 24 hours. The incubation was quenched by the addition of 50 μl of a solution of diprotin A prepared at a concentration of 4 mg/ml in PBS. Each peptide was tested in duplicate.
# Each sample was analyzed by reverse-phase (RP) HPLC as follows: 90 μl of the quenched incubation mixture was injected onto a Rainin Dynamax 300 Å, C18, 5 micron, 4.6×250 millimeter column. The samples were eluted with 0.1% trifluoroacetic acid (TFA) in water modified with 0.1% acetonitrile using a linear gradient and a flow rate of 1 ml per minute. Sample components were detected at 214 nanometers (nm). The extent of cleavage was measured by relative integration of the peak corresponding to the cleavage product compared to that of the remaining undigested parent peptide.
row,Compound,cleavage products detected after DPP-IV incubation
1,[D-Ala^2]ratGLP-2,No cleavage products were detected
2,[Gly^2]ratGLP-2,No cleavage products were detected

# Target: T1, human placental DPP-IV
# Experiment: not given
# Conditions: not given
row,Compound,cleavage products detected after DPP-IV incubation
1,CC[C@H](C)[C@H](NC(=O)[C@H](Cc1ccccc1)NC(=O)[C@H](CC(=O)O)NC(=O)[C@H](CCCNC(=N)N)NC(=O)[C@H](C)NC(=O)[C@H](C)NC(=O)[C@H](CC(C)C)NC(=O)[C@H](CC(N)=O)NC(=O)[C@H](CC(=O)O)NC(=O)[C@H](CC(C)C)NC(=O)[C@@H](NC(=O)[C@@H](NC(=O)[C@H](CC(N)=O)NC(=O)[C@H](CCSC)NC(=O)[C@H](CCC(=O)O)NC(=O)[C@H](CC(=O)O)NC(=O)[C@H](CO)NC(=O)[C@H](Cc1ccccc1)NC(=O)[C@H](CO)NC(=O)CNC(=O)[C@H](CC(=O)O)NC(=O)[C@H](Cc1ccc(OP(=O)(O)O)cc1)NC(=O)[C@@H](N)Cc1c[nH]cn1)[C@@H](C)O)[C@@H](C)CC)C(=O)N[C@@H](CC(N)=O)C(=O)N[C@@H](Cc1c[nH]c2ccccc12)C(=O)N[C@@H](CC(C)C)C(=O)N[C@H](C(=O)N[C@@H](CCC(N)=O)C(=O)N[C@H](C(=O)N[C@@H](CCCCN)C(=O)N[C@H](C(=O)N[C@H](C(=O)N[C@@H](CC(=O)O)C(=O)O)[C@@H](C)O)[C@@H](C)CC)[C@@H](C)O)[C@@H](C)CC [[PO3-Tyr^2]GLP-2] (H-H[pY]DGSFSDEMNTILDNLAARDFINWLIQTKITD-OH; N-terminus and C-terminus assumed),No cleavage products were detected
2,HCDGSFSDEMNTILDNLAARDFINWLIQTKITD [[Cys^2]GLP-2],No cleavage products were detected
3,HEDGSFSDEMNTILDNLAARDFINWLIQTKITD [[Glu^2]GLP-2],No cleavage products were detected
4,"HGDGSFSDEMNTILANLAARDFINWLIQTKITD [[Gly^2, Ala^15]GLP-2]",No cleavage products were detected
5,"HGDGSFSDEMNTILDNLAARDAINWLIQTKITD [[Gly^2, Ala^22]GLP-2]",No cleavage products were detected
6,"HGDGSFSDEMNTILDNLAARDFINWLIQAKITD [[Gly^2, Ala^29]GLP-2]",No cleavage products were detected
7,"HGDGSFSDEMNTILDNLAARDFINWLIQTKIAD [[Gly^2, Ala^32]GLP-2]",No cleavage products were detected
8,"HGDGSFSDEMNTILDNLAARDFINWLIQTKITA [[Gly^2, Ala^33]GLP-2]",No cleavage products were detected
9,HLDGSFSDEMNTILDNLAARDFINWLIQTKITD [[Leu^2]GLP-2],No cleavage products were detected
10,HRDGSFSDEMNTILDNLAARDFINWLIQTKITD [[Arg^2]GLP-2],No cleavage products were detected
11,HWDGSFSDEMNTILDNLAARDFINWLIQTKITD [[Trp^2]GLP-2],No cleavage products were detected
